The values that follow come from US20260200928A1, “THERAPEUTIC COMPOUNDS” (Sanofi, priority 2022, published 2026).

pIC50: −log10 of the molar value.

This test has as its target T1, human IL-17A (Homo sapiens, UniProt Q16552).
T1 construct: purchased R&D Systems 7955-IL/CF
T1 sequence (Q16552 24-155): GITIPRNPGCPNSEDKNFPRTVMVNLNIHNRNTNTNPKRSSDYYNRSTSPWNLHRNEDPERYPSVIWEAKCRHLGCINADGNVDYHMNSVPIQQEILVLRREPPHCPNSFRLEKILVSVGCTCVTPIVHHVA
Description: IL-17A AlphaLISA competition assay (block of IL-17A binding to its receptor IL-17RA). The conditions noted are these: mean IC50 (n≥2), block of IL-17A binding to IL-17RA. The procedure, abridged:
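Human recombinant IL-17A (7.5 nM stock) pre-incubated 30 min at RT with compound, then IL-17RA/Fc (5 nM stock) added for 90 min; AlphaLISA read with anti-Fc acceptor beads, biotinylated anti-IL-17A antibody (5 nM) and streptavidin donor beads (3 h, dark). IC50 from 4-parameter logistic fit, normalised to DMSO and 4 μM reference inhibitor; n≥2.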

Compound `COC[C@H](c1ccnc(NC(=O)[C@@H](NC(=O)c2ccnn2C(C)C)C(C2CC2)C2CC2)c1)N1C[C@@H](C(F)(F)F)NC1=O` [Example 229, N-((S)-1,1-dicyclopropyl-3-((4-((S)-2-methoxy-1-((S)-2-oxo-4-(trifluoromethyl)imidazolidin-1-yl)ethyl)pyridin-2-yl)amino)-3-oxopropan-2-yl)-1-isopropyl-1H-pyrazole-5-carboxamide] gave a negative logarithm of the IC50 (pIC50) of 7.07.

For `[2H]C(c1ccnc(NC(=O)[C@@H](NC(=O)c2nonc2C2CC2)[C@H]2CC[C@H](C)CC2)c1)N1C[C@@H](C(F)(F)F)NC1=O` (stereo partly drawn) [Example 231, 4-Cyclopropyl-N-((1S)-1-((1r,4S)-4-methylcyclohexyl)-2-oxo-2-((4-(((S)-2-oxo-4-(trifluoromethyl)imidazolidin-1-yl)methyl-d)pyridin-2-yl)amino)ethyl)-1,2,5-oxadiazole-3-carboxamide], the pIC50 is 7.42.

The compound `[2H]C(c1ccnc(NC(=O)[C@@H](NC(=O)c2ccnn2C)[C@H]2CC[C@H](C)CC2)c1)N1C[C@@H](C(F)(F)F)NC1=O` (stereo partly drawn) [Example 232, 1-Methyl-N-((1S)-1-((1r,4S)-4-methylcyclohexyl)-2-oxo-2-((4-(((S)-2-oxo-4-(trifluoromethyl)imidazolidin-1-VI)methyl-d)pyridin-2-yl)amino)ethyl)-1H-pyrazole-5-carboxamide] had a negative-log IC50 (pIC50) of 7.28. This pIC50 and that of the compound before are within 0.2 log units of each other.

As for `C[C@H]1CC[C@H]([C@@H](NC(=O)c2nonc2C2CC2)C(=O)Nc2cc(C(NC(=O)CCC(F)(F)F)C3CC3)ccn2)CC1` (stereo partly drawn) [Example 235, 4-Cyclopropyl-N-((1S)-2-((4-(cyclopropyl(4,4,4-trifluorobutanamido)-methyl)pyridin-2-yl)amino)-1-((1r,4S)-4-methylcyclohexyl)-2-oxoethyl)-1,2,5-oxadiazole-3-carboxamide], the pIC50 was 7.18. This pIC50 and that of the compound before are within 0.2 log units of each other.

`Cn1nccc1C(=O)N[C@H](C(=O)Nc1cc(C(NC(=O)CCC(F)(F)F)C2CC2)ccn1)[C@H]1CC[C@H](C)CC1` (stereo partly drawn) [Example 236, N-((1S)-2-((4-(cyclopropyl(4,4,4-trifluorobutanamido)methyl)pyridin-2-yl)amino)-1-((1r,4S)-4-methylcyclohexyl)-2-oxoethyl)-1-methyl-1H-pyrazole-5-carboxamide]: the pIC50 is 7.59.

Take `Cc1nonc1C(=O)N[C@H](C(=O)Nc1cc([C@@H](C)N2C[C@@H](C(F)(F)F)NC2=O)ccn1)[C@H]1CC[C@H](C)CC1` [Example 237, 4-methyl-N—((S)-1-((1r,4S)-4-methylcyclohexyl)-2-oxo-2-((4-((R)-1-((S)-2-oxo-4-(trifluoromethyl)imidazolidin-1-yl)ethyl)pyridin-2-yl)amino)ethyl)-1,2,5-oxadiazole-3-carboxamide]: the pIC50 is 7.66.

The compound `CC1CCC(C(NC(=O)c2nonc2C2CC2)C(=O)Nc2cc(C(C)N3CC(C(F)(F)F)NC3=O)ccn2)CC1` [Example 238, 4-cyclopropyl-N-((S)-1-((1r,4S)-4-methylcyclohexyl)-2-oxo-2-((4-((R)-1-((S)-2-oxo-4-(trifluoromethyl)imidazolidin-1-yl)ethyl)pyridin-2-yl)amino)ethyl)-1,2,5-oxadiazole-3-carboxamide] showed a pIC50 of 7.85.

For the compound `CCn1nccc1C(=O)N[C@H](C(=O)Nc1cc([C@@H](C)N2C[C@@H](C(F)(F)F)NC2=O)ccn1)[C@H]1CC[C@H](C)CC1` [Example 239, 1-ethyl-N-((S)-1-((1r,4S)-4-methylcyclohexyl)-2-oxo-2-((4-((R)-1-((S)-2-oxo-4-(trifluoromethyl)imidazolidin-1-yl)ethyl)pyridin-2-yl)amino)ethyl)-1H-pyrazole-5-carboxamide], the negative-log IC50 (pIC50) was 7.80.

The compound `CC1CCC(C(NC(=O)c2ccnn2C)C(=O)Nc2cc(C(C)N3CC(C(F)(F)F)NC3=O)ccn2)CC1` [Example 240, 1-methyl-N-((S)-1-((1r,4S)-4-methylcyclohexyl)-2-oxo-2-((4-((R)-1-((S)-2-oxo-4-(trifluoromethyl)imidazolidin-1-yl)ethyl)pyridin-2-yl)amino)ethyl)-1H-pyrazole-5-carboxamide] showed a pIC50 of 7.80.

Regarding `CC1CCC(C(NC(=O)c2ccnn2C(C)C)C(=O)Nc2cc(C(C)N3CC(C(F)(F)F)NC3=O)ccn2)CC1` [Example 241, 1-isopropyl-N-((S)-1-((1r,4S)-4-methylcyclohexyl)-2-oxo-2-((4-((R)-1-((S)-2-oxo-4-(trifluoromethyl)imidazolidin-1-yl)ethyl)pyridin-2-yl)amino)ethyl)-1H-pyrazole-5-carboxamide], the pIC50 was 7.54. Compared with the last compound, the pIC50 is 0.26 log units lower.

`COCC(NC(=O)CCC(F)(F)F)c1ccnc(NC(=O)C(NC(=O)c2nonc2C)C2CCC(C)CC2)c1` [Example 242, N-((1S)-2-((4-(2-methoxy-1-(4,4,4-trifluorobutanamido)ethyl)pyridin-2-yl)amino)-1-((1r,4S)-4-methylcyclohexyl)-2-oxoethyl)-4-methyl-1,2,5-oxadiazole-3-carboxamide]: the negative-log IC50 (pIC50) was 7.07.

Consider `COCC(NC(=O)CCC(F)(F)F)c1ccnc(NC(=O)C(NC(=O)c2nonc2C2CC2)C2CCC(C)CC2)c1` [Example 243, 4-cyclopropyl-N-((1S)-2-((4-(2-methoxy-1-(4,4,4-trifluorobutanamido)ethyl)pyridin-2-yl)amino)-1-((1r,4S)-4-methylcyclohexyl)-2-oxoethyl)-1,2,5-oxadiazole-3-carboxamide], for which the pIC50 was 7.42.

`CCn1nccc1C(=O)NC(C(=O)Nc1cc(C(COC)NC(=O)CCC(F)(F)F)ccn1)C1CCC(C)CC1` [Example 244, 1-ethyl-N-((1S)-2-((4-(2-methoxy-1-(4,4,4-trifluorobutanamido)ethyl)pyridin-2-yl)amino)-1-((1r,4S)-4-methylcyclohexyl)-2-oxoethyl)-1H-pyrazole-5-carboxamide] showed a pIC50 of 7.33. This pIC50 and that of the compound before are within 0.2 log units of each other.

The compound `COCC(NC(=O)CCC(F)(F)F)c1ccnc(NC(=O)C(NC(=O)c2ccnn2C)C2CCC(C)CC2)c1` [Example 245, N-((1S)-2-((4-(2-methoxy-1-(4,4,4-trifluorobutanamido)ethyl)pyridin-2-yl)amino)-1-((1r,4S)-4-methylcyclohexyl)-2-oxoethyl)-1-methyl-1H-pyrazole-5-carboxamide] showed a negative logarithm of the IC50 (pIC50) of 7.14.

With `COCC(NC(=O)CCC(F)(F)F)c1ccnc(NC(=O)C(NC(=O)c2ccnn2C(C)C)C2CCC(C)CC2)c1` [Example 246, 1-isopropyl-N-((1S)-2-((4-(2-methoxy-1-(4,4,4-trifluorobutanamido)ethyl)pyridin-2-yl)amino)-1-((1r,4S)-4-methylcyclohexyl)-2-oxoethyl)-1H-pyrazole-5-carboxamide], the pIC50 was 7.14.

`COCC(c1ccnc(NC(=O)C(NC(=O)C(F)c2ccccc2)C2CCC(C)CC2)c1)N1CC(C(F)(F)F)NC1=O` [Example 254, 2-fluoro-N-((S)-2-((4-((S)-2-methoxy-1-((S)-2-oxo-4-(trifluoromethyl)-imidazolidin-1-yl)ethyl)pyridin-2-yl)amino)-1-((1r,4S)-4-methylcyclohexyl)-2-oxoethyl)-2-phenylacetamide] gave a negative-log IC50 (pIC50) of 7.11. The pIC50 values of the last two compounds are within 0.2 log units of each other.

`CC[C@H](c1ccnc(NC(=O)[C@@H](NC(=O)c2nonc2C)[C@H]2CC[C@H](C)CC2)c1)N1C[C@@H](C(F)(F)F)NC1=O` [Example 256, 4-methyl-N—((S)-1-((1r,4S)-4-methylcyclohexyl)-2-oxo-2-((4-((R)-1-((S)-2-oxo-4-(trifluoromethyl)imidazolidin-1-yl)propyl)pyridin-2-yl)amino)ethyl)-1,2,5-oxadiazole-3-carboxamide]: the negative-log IC50 (pIC50) was 7.47.
